What was measured:
[1] = tested on: human dermal fibroblast neonatal; assay: Procollagen production (collagen synthesis promotion), ELISA kit; format: cell-based; conditions: 1 and 5 μg/ml, 48 h, versus positive control NAG at the same concentration, FIG. 3
Procedure: A human dermal fibroblast neonatal (Cascade Co.) was inoculated into a 24-well microplate (5×10^4 cells/well) by using a medium, in which Dulbeco's Modified Eagle's Medium (DMEM) was supplemented with 10% fetal bovine serum, thus being cultured under a condition of 37° C. and 5% CO2 for 24 hours. Then, the same was replaced with a serum-free DMEM medium and cultured for 24 hours, after which an appropriate amount of a sample fluid was treated so that a final concentration of each test compound could reach 1 μg/ml and 5 μg/ml. After being cultured for 48 hours, a cell culture fluid was collected and then an amount of procollagen was measured by using a collagen measurement kit of Takara Company (Takara Shuzo Co., Ltd.). First of all, the collected cell culture fluid was injected into a 96-well microplate, to which a primary collagen antibody was evenly applied, such that an antigen-antibody reaction could occur at 37° C. for three hours. The cell culture fluid was removed from the well and washed four times with PBS. A color causing material was injected into each well, after which a reaction took place at a room temperature for 15 minutes, such that 1 N sulfuric acid solution was added thereto, thus stopping the reaction. An optical density was measured at a wavelength of 450 nm by means of a spectrophotometer. […]

[2] = Stability of the fraction in raw material solution (HPLC content of UL4, UL5); format: physicochemical; conditions: for content stability Results: over 12 weeks
Procedure: A solution obtained by dissolving powder of the Gynostemma pentaphyllum gypenoside fraction at a concentration of 4% in 100 mL of a mixed solvent of propylene glycol, glycerin and distilled water at a ratio of 5:3:2 was used to identify stability of the Gynostemma pentaphyllum gypenoside fraction in a raw material state. While the solution was being stored under a condition of 4° C., 30° C. and 45° C. and sunlight for 12 weeks, changes with passage of time (% compared to an initial content) in the gypenosides UL4 and UL5, which were index ingredients for quantification out of the Gynostemma pentaphyllum gypenosides, were observed through an HPLC analysis and results thereof were indicated in Table 3.

[3] = Titer stability of UL4 and UL5 within formulations (HPLC); format: physicochemical; conditions: for content stability Result: over 12 weeks
Procedure: As shown in Formulation Examples 1, 2 and 3, cosmetic compositions of a high viscosity emulsified formulation, a low viscosity emulsified formulation and a solubilized formulation, respectively comprising 0.2% of the Gynostemma pentaphyllum gypenoside fraction, were stored under a condition of 4 CC, 30 CC, 45° C. and sunlight for 12 weeks and changes with passage of time (% compared to an initial content) in the gypenosides UL4 and UL5, which were index ingredients for quantification out of the Gynostemma pentaphyllum gypenoside ingredients, were observed through an HPLC analysis, and results thereof were indicated in Tables 10 to 12.

CC(C)=CC1C[C@](O)([C@H]2CC[C@]3(C)[C@@H]2CC[C@@H]2[C@@]4(C=O)CC[C@H](O[C@@H]5OC[C@H](O)[C@H](O[C@@H]6OC[C@@H](O)[C@H](O)[C@H]6O)[C@H]5O[C@@H]5O[C@@H](C)[C@H](O)[C@@H](O)[C@H]5O)C(C)(C)[C@@H]4CC[C@]23C)[C@H](O)O1 (stereo partly drawn) [Gypenoside UL4, (23ξ)-3β,20β,21α-trihydroxy-19-oxo-21,23-epoxy-dammar-24-ene-3-O-[α-L-rhamnopyranosyl (1→2)][β-D-xylopyranosyl (1→3)]-α-L-arabinopyranoside]
procollagen-producing effect compared with NAG [1]: the same or larger amount of procollagen
content, % compared to an initial content ([2]; 4° C., 1 week): 100.2%
content, % compared to an initial content ([2]; 4° C., 2 weeks): 98.1%
content, % compared to an initial content ([2]; 4° C., 4 weeks): 96.9%
content, % compared to an initial content ([2]; 4° C., 8 weeks): 98.3%
content, % compared to an initial content ([2]; 4° C., 12 weeks): 96.1%
content stability Results ([2]; 4° C.): Stable
content, % compared to an initial content ([2]; 30° C., 1 week): 102.8%
content, % compared to an initial content ([2]; 30° C., 2 weeks): 99.9%
content, % compared to an initial content ([2]; 30° C., 4 weeks): 98.7%
content, % compared to an initial content ([2]; 30° C., 8 weeks): 96.5%
content, % compared to an initial content ([2]; 30° C., 12 weeks): 96.6%
content stability Results ([2]; 30° C.): Stable
content, % compared to an initial content ([2]; 45° C., 1 week): 97.1%
content, % compared to an initial content ([2]; 45° C., 2 weeks): 96.3%
content, % compared to an initial content ([2]; 45° C., 4 weeks): 102.7%
content, % compared to an initial content ([2]; 45° C., 8 weeks): 97.5%
content, % compared to an initial content ([2]; 45° C., 12 weeks): 102.4%
content stability Results ([2]; 45° C.): Stable
content, % compared to an initial content ([2]; Sunlight, 1 week): 97.6%
content, % compared to an initial content ([2]; Sunlight, 2 weeks): 96.6%
content, % compared to an initial content ([2]; Sunlight, 4 weeks): 96.6%
content, % compared to an initial content ([2]; Sunlight, 8 weeks): 98.1%
content, % compared to an initial content ([2]; Sunlight, 12 weeks): 97.1%
content stability Results ([2]; Sunlight): Stable
content, % compared to an initial content ([3]; High viscosity emulsified formulation, 4° C., 1 week): 101.9%
content, % compared to an initial content ([3]; High viscosity emulsified formulation, 4° C., 2 weeks): 95.9%
content, % compared to an initial content ([3]; High viscosity emulsified formulation, 4° C., 4 weeks): 102%
content, % compared to an initial content ([3]; High viscosity emulsified formulation, 4° C., 8 weeks): 101.4%
content, % compared to an initial content ([3]; High viscosity emulsified formulation, 4° C., 12 weeks): 104.1%
content stability Result ([3]; High viscosity emulsified formulation, 4° C.): Stable
content, % compared to an initial content ([3]; High viscosity emulsified formulation, 30° C., 1 week): 105.2%
content, % compared to an initial content ([3]; High viscosity emulsified formulation, 30° C., 2 weeks): 103.1%
content, % compared to an initial content ([3]; High viscosity emulsified formulation, 30° C., 4 weeks): 104.4%
content, % compared to an initial content ([3]; High viscosity emulsified formulation, 30° C., 8 weeks): 105.7%
content, % compared to an initial content ([3]; High viscosity emulsified formulation, 30° C., 12 weeks): 108.2%
content stability Result ([3]; High viscosity emulsified formulation, 30° C.): Stable
content, % compared to an initial content ([3]; High viscosity emulsified formulation, 45° C., 1 week): 105.3%
content, % compared to an initial content ([3]; High viscosity emulsified formulation, 45° C., 2 weeks): 108.2%
content, % compared to an initial content ([3]; High viscosity emulsified formulation, 45° C., 4 weeks): 107.6%
content, % compared to an initial content ([3]; High viscosity emulsified formulation, 45° C., 8 weeks): 108.1%
content, % compared to an initial content ([3]; High viscosity emulsified formulation, 45° C., 12 weeks): 107.1%
content stability Result ([3]; High viscosity emulsified formulation, 45° C.): Stable
content, % compared to an initial content ([3]; High viscosity emulsified formulation, Sunlight, 1 week): 102.4%
content, % compared to an initial content ([3]; High viscosity emulsified formulation, Sunlight, 2 weeks): 99.8%
content, % compared to an initial content ([3]; High viscosity emulsified formulation, Sunlight, 4 weeks): 101.2%
content, % compared to an initial content ([3]; High viscosity emulsified formulation, Sunlight, 8 weeks): 99.4%
content, % compared to an initial content ([3]; High viscosity emulsified formulation, Sunlight, 12 weeks): 103.6%
content stability Result ([3]; High viscosity emulsified formulation, Sunlight): Stable
content, % compared to an initial content ([3]; Low viscosity emulsified formulation, 4° C., 1 week): 100.1%
content, % compared to an initial content ([3]; Low viscosity emulsified formulation, 4° C., 2 weeks): 102.4%
content, % compared to an initial content ([3]; Low viscosity emulsified formulation, 4° C., 4 weeks): 101.2%
content, % compared to an initial content ([3]; Low viscosity emulsified formulation, 4° C., 8 weeks): 94.9%
content, % compared to an initial content ([3]; Low viscosity emulsified formulation, 4° C., 12 weeks): 94.1%
content stability Result ([3]; Low viscosity emulsified formulation, 4° C.): Stable
content, % compared to an initial content ([3]; Low viscosity emulsified formulation, 30° C., 1 week): 105.0%
content, % compared to an initial content ([3]; Low viscosity emulsified formulation, 30° C., 2 weeks): 101.8%
content, % compared to an initial content ([3]; Low viscosity emulsified formulation, 30° C., 4 weeks): 101.6%
content, % compared to an initial content ([3]; Low viscosity emulsified formulation, 30° C., 8 weeks): 104.1%
content, % compared to an initial content ([3]; Low viscosity emulsified formulation, 30° C., 12 weeks): 105.2%
content stability Result ([3]; Low viscosity emulsified formulation, 30° C.): Stable
content, % compared to an initial content ([3]; Low viscosity emulsified formulation, 45° C., 1 week): 101.9%
content, % compared to an initial content ([3]; Low viscosity emulsified formulation, 45° C., 2 weeks): 106.2%
content, % compared to an initial content ([3]; Low viscosity emulsified formulation, 45° C., 4 weeks): 105.9%
content, % compared to an initial content ([3]; Low viscosity emulsified formulation, 45° C., 8 weeks): 95.6%
content, % compared to an initial content ([3]; Low viscosity emulsified formulation, 45° C., 12 weeks): 99.3%
content stability Result ([3]; Low viscosity emulsified formulation, 45° C.): Stable
content, % compared to an initial content ([3]; Low viscosity emulsified formulation, Sunlight, 1 week): 96.3%
content, % compared to an initial content ([3]; Low viscosity emulsified formulation, Sunlight, 2 weeks): 99.5%
content, % compared to an initial content ([3]; Low viscosity emulsified formulation, Sunlight, 4 weeks): 100.5%
content, % compared to an initial content ([3]; Low viscosity emulsified formulation, Sunlight, 8 weeks): 99.8%
content, % compared to an initial content ([3]; Low viscosity emulsified formulation, Sunlight, 12 weeks): 102%
content stability Result ([3]; Low viscosity emulsified formulation, Sunlight): Stable
content, % compared to an initial content ([3]; Solubilized formulation, 4° C., 1 week): 98.8%
content, % compared to an initial content ([3]; Solubilized formulation, 4° C., 2 weeks): 91.9%
content, % compared to an initial content ([3]; Solubilized formulation, 4° C., 4 weeks): 98.7%
content, % compared to an initial content ([3]; Solubilized formulation, 4° C., 8 weeks): 97.6%
content, % compared to an initial content ([3]; Solubilized formulation, 4° C., 12 weeks): 99.5%
content stability Result ([3]; Solubilized formulation, 4° C.): Stable
content, % compared to an initial content ([3]; Solubilized formulation, 30° C., 1 week): 100.0%
content, % compared to an initial content ([3]; Solubilized formulation, 30° C., 2 weeks): 103.2%
content, % compared to an initial content ([3]; Solubilized formulation, 30° C., 4 weeks): 102.7%
content, % compared to an initial content ([3]; Solubilized formulation, 30° C., 8 weeks): 98.5%
content, % compared to an initial content ([3]; Solubilized formulation, 30° C., 12 weeks): 104.5%
content stability Result ([3]; Solubilized formulation, 30° C.): Stable
content, % compared to an initial content ([3]; Solubilized formulation, 45° C., 1 week): 102.8%
content, % compared to an initial content ([3]; Solubilized formulation, 45° C., 2 weeks): 101.6%
content, % compared to an initial content ([3]; Solubilized formulation, 45° C., 4 weeks): 94.2%
content, % compared to an initial content ([3]; Solubilized formulation, 45° C., 8 weeks): 97.2%
content, % compared to an initial content ([3]; Solubilized formulation, 45° C., 12 weeks): 94.9%
content stability Result ([3]; Solubilized formulation, 45° C.): Stable
content, % compared to an initial content ([3]; Solubilized formulation, Sunlight, 1 week): 98.8%
content, % compared to an initial content ([3]; Solubilized formulation, Sunlight, 2 weeks): 94.8%
content, % compared to an initial content ([3]; Solubilized formulation, Sunlight, 4 weeks): 98.4%
content, % compared to an initial content ([3]; Solubilized formulation, Sunlight, 8 weeks): 98%
content, % compared to an initial content ([3]; Solubilized formulation, Sunlight, 12 weeks): 94.6%
content stability Result ([3]; Solubilized formulation, Sunlight): Stable

From patent publication US11007136B2, “Cosmetic composition for wrinkle reduction containing gypenoside isolated from Gynostemma pentaphyllum” (CELLTRION INC., priority 2015, dated 2021)
